Measured values taken from patent US6479531B1, “Gastrin and cholecystokinin receptor ligands” (James Black Foundation Limited, priority 1998, dated 2002).
Structures can show the parent of a compound that is named as a salt.

Assays:
gastrin receptor = molecular target: T1, gastrin receptor (Rattus norvegicus, UniProt P30553); experiment: gastrin antagonist activity in immature rat stomach assay (pentagastrin dose-response, acid secretion); details: isolated immature rat stomach, cumulative pentagastrin dose-response curves; for Kb: read-out: Gastrin pKb (converted)
T1 construct: The stomach was excised and flushed with ca. 1 ml of unbuffered physiological saline solution; from tissue; host or cells: isolated whole stomach of immature rats (ca. 21 days old)
T1 sequence (P30553 1-452): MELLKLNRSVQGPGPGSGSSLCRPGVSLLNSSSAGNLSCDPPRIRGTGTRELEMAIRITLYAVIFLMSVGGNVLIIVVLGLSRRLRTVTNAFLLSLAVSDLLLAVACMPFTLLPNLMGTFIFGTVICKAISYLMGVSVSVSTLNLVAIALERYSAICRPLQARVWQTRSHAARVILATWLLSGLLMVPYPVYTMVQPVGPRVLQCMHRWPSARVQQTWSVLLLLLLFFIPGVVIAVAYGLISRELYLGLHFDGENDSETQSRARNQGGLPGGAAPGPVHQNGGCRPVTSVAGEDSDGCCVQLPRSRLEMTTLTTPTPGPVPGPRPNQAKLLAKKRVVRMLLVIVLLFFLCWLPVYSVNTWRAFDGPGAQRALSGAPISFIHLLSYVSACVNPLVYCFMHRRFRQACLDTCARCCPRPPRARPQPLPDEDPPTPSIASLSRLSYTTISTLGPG
Method in brief: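 Gastrin antagonism was measured as the effect on cumulative pentagastrin dose-response curves of acid output, recorded by pH electrode in the perfusate of an excised immature rat stomach (ca. 21 days old). Test compound was placed in the serosal bath (37°, 3×10^−8 M 5-methylfurmethide) 60 min before pentagastrin.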

CCKB receptor = molecular target: T2, CCKB receptor (Mus musculus, UniProt P56481); experiment: CCKB receptor radioligand binding assay in mouse cortical membranes; details: [125I]-CCK8(S) 200 pM, 150 min at 21±3°; for Ki: read-out: CCKB pKi (converted)
T2 construct: The whole brains from male mice (CD1 22-25 g; Charles River) were removed; from tissue; host or cells: cerebral cortex membranes of male CD1 mice
T2 sequence (P56481 1-453): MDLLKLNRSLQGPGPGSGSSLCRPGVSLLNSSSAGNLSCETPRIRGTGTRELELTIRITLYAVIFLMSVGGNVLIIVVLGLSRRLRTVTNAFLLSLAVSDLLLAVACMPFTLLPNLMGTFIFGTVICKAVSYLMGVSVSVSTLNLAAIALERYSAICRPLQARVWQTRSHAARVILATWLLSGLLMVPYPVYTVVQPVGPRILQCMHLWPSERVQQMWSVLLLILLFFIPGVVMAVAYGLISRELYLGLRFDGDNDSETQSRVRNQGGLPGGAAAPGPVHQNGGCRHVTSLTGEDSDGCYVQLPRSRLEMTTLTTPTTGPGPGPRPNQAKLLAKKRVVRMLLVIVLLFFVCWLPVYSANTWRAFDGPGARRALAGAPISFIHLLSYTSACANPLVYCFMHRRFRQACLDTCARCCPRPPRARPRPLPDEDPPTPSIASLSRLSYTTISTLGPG
Method in brief: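 Bound radioactivity was gamma-counted after rapid GF/B filtration and cold 50 mM Tris-HCl (pH 7.4) washes. The tissue was cerebral cortex from male CD1 mice, prepared as twice-centrifuged membranes in pH 7.2 HEPES/NaCl/KCl/MgCl2/EDTA buffer with bacitracin at 20 mg/ml original wet weight.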

O=C(O)c1cc(NC(=O)c2[nH]c(-c3ccccc3)nc2CC2CCCCCC2)cc(C(=O)O)c1 [Example 24, 5-[(5-Cycloheptylmethyl-2-phenyl-1H-imidazole-4-carbonyl)-amino]-isophthalic Acid]
Kb (gastrin receptor): 479 nM
Ki (CCKB receptor): 1000 nM

Cc1ccccc1-c1nc(C(=O)Nc2cccc(C(=O)O)c2)c(CCC23CC4CC(CC(C4)C2)C3)[nH]1 [Example 57, 3-{[5-(2-Adamantan-1-yl-ethyl)-2-o-tolyl-1H-imidazole-4-carbonyl]-amino}-benzoic Acid]
Kb (gastrin receptor): 58.9 nM
Ki (CCKB receptor): 120 nM

O=C(O)c1cccc(NC(=O)c2nc([C@@H]3CCCN3)[nH]c2CCC23CC4CC(CC(C4)C2)C3)c1 [Example 136, (S)-3-{[5-(2-Adamantan-1-yl-ethyl)-2-pyrrolidin-2-yl-1H-imidazole-4-carbonyl]-amino}-benzoic Acid]
Kb (gastrin receptor): 148 nM
Ki (CCKB receptor): 4170 nM

CC(C)c1nc(C(=O)Nc2cccc(C(=O)O)c2)c(CCC23CC4CC(CC(C4)C2)C3)[nH]1 [Example 78, 3-{[5-(2-Adamantan-1-yl-ethyl)-2-isopropyl-1H-imidazole-4-carbonyl]-amino}-benzoic Acid]
Kb (gastrin receptor): 20.9 nM
Ki (CCKB receptor): 186 nM

Cc1ccc(NC(=O)c2nc(C3CCCCC3)[nH]c2CCC2CCCCCC2)cc1C(=O)O [Example 167, 5-{[5-(2-Cycloheptyl-ethyl)-2-cyclohexyl-1H-imidazole-4-carbonyl]-amino}-2-methyl-benzoic Acid]
Kb (gastrin receptor): 13.8 nM
Ki (CCKB receptor): 28.2 nM

Cc1ccc(NC(=O)c2nc(-c3ccc(F)cc3F)[nH]c2CCC23CC4CC(CC(C4)C2)C3)cc1C(=O)O [Example 152, 5-{[5-(2-Adamantan-1-yl-ethyl)-2-(2,4-difluoro-phenyl)-1H-imidazole-4-carbonyl]-amino}-2-methyl-benzoic Acid]
Kb (gastrin receptor): 11.5 nM
Ki (CCKB receptor): 10.5 nM

5-[(2-Cycloheptylmethyl--phenyl-1H-pyrrole-3-carbonyl)-amino]-isophthalic Acid [Example 13]
Gastrin pKb (gastrin receptor): 6.21
CCKB pKi (CCKB receptor): 6.44

COc1ccccc1-c1nc(C(=O)Nc2cccc(C(=O)O)c2)c(CCC23CC4CC(CC(C4)C2)C3)[nH]1 [Example 58, 3-{[5-(2-Adamantan-1-yl-ethyl)-2-(2-methoxy-phenyl)-1H-imidazole-4-carbonyl]-amino}-benzoic Acid]
Kb (gastrin receptor): 22.9 nM
Ki (CCKB receptor): 794 nM

Cc1ccccc1-c1nc(C(=O)Nc2ccc(N)c(C(=O)O)c2)c(CCC23CC4CC(CC(C4)C2)C3)[nH]1 [Example 241, 5-{[5-(2-Adamantan-1-yl-ethyl)-2-o-tolyl-1H-imidazole-4-carbonyl]-amino}-2-amino-benzoic Acid Dihydrochloride]
Kb (gastrin receptor): 4680 nM
Ki (CCKB receptor): 60.3 nM

O=C(O)c1cccc(NC(=O)c2nc(-c3cccc(O)c3)[nH]c2CCC23CC4CC(CC(C4)C2)C3)c1 [Example 62, 3-{[5-(2-Adamantan-1-yl-ethyl)-2-(3-hydroxy-phenyl)-1H-imidazole-4-carbonyl]-amino}-benzoic Acid]
Kb (gastrin receptor): 1200 nM
Ki (CCKB receptor): 389 nM

O=C(O)c1cccc(NC(=O)c2nc(-c3ccccc3C(F)(F)F)[nH]c2CCC2CCCCCC2)c1 [Example 40, 3-{[5-(2-Cycloheptyl-ethyl)-2-(2-trifluoromethyl-phenyl)-1H-imidazole-4-carbonyl]-amino}-benzoic Acid]
Kb (gastrin receptor): 204 nM
Ki (CCKB receptor): 933 nM

CN(C)c1ccc(-c2nc(C(=O)Nc3cccc(C(=O)O)c3)c(CCC34CC5CC(CC(C5)C3)C4)[nH]2)cc1 [Example 72, 3-{[5-(2-Adamantan-1-yl-ethyl)-2-(4-dimethylamino-phenyl)-1H-imidazole-4-carbonyl]-amino}-benzoic Acid]
Kb (gastrin receptor): 1230 nM
Ki (CCKB receptor): 295 nM

CC(C)CN1CCC[C@@H]1c1nc(C(=O)Nc2cccc(C(=O)O)c2)c(CCC23CC4CC(CC(C4)C2)C3)[nH]1 [Example 144, (R)-3-{[5-(2-Adamantan-1-yl-ethyl)-2-[1-(2-methyl-propyl)-pyrrolidin-2-yl]-1H-imidazole-4-carbonyl]-amino}-benzoic Acid]
Kb (gastrin receptor): 14.1 nM
Ki (CCKB receptor): 437 nM

O=C(O)Cc1cccc(NC(=O)c2nc(C3CCCCC3)[nH]c2CCC23CC4CC(CC(C4)C2)C3)c1 [Example 84, (3-{[5-(2-Adamantan-1-yl-ethyl)-2-cyclohexyl-1H-imidazole-4-carbonyl]-amino}-phenyl)-acetic Acid]
Kb (gastrin receptor): 162 nM
Ki (CCKB receptor): 1.02 nM

Cc1cc(F)ccc1-c1nc(C(=O)Nc2cccc(C(=O)O)c2)c(CCC23CC4CC(CC(C4)C2)C3)[nH]1 [Example 96, 3-{[5-(2-Adamantan-1-yl-ethyl)-2-(4-fluoro-2-methyl-phenyl)-1H-imidazole-4-carbonyl]-amino}-benzoic Acid]
Kb (gastrin receptor): 12.3 nM
Ki (CCKB receptor): 166 nM

Cc1c(NC(=O)c2nc(C3CCCCC3)[nH]c2CCC23CC4CC(CC(C4)C2)C3)cccc1C(=O)O [Example 253, 3-{[5-(2-Adamantan-1-yl-ethyl)-2-cyclohexyl-1H-imidazole-4-carbonyl]-amino}-2-methyl-benzoic Acid]
Kb (gastrin receptor): 64.6 nM
Ki (CCKB receptor): 55 nM

O=C(O)c1cccc(NC(=O)c2nc(-c3ccccc3C(F)(F)F)[nH]c2CCC23CC4CC(CC(C4)C2)C3)c1 [Example 56, 3-{[5-(2-Adamantan-1-yl-ethyl)-2-(2-trifluoromethyl-phenyl)-1H-imidazole-4-carbonyl]-amino}-benzoic Acid]
Kb (gastrin receptor): 18.2 nM
Ki (CCKB receptor): 240 nM

CN1CCC[C@H]1c1nc(C(=O)Nc2cccc(C(=O)O)c2)c(CCC23CC4CC(CC(C4)C2)C3)[nH]1 [Example 137, (S)-3-{[5-(2-Adamantan-1-yl-ethyl)-2-(1-methyl-pyrrolidin-2-yl)-1H-imidazole-4-carbonyl]-amino}-benzoic Acid]
Kb (gastrin receptor): 5.13 nM
Ki (CCKB receptor): 324 nM

Cc1ccccc1-c1nc(NC(=O)Nc2cccc(C(=O)O)c2)c(CCC23CC4CC(CC(C4)C2)C3)[nH]1 [Example 75, 3-{3-[5-(2-Adamantan-1-yl-ethyl)-2-o-tolyl-1H-imidazol-4-yl]-ureido}-benzoic Acid]
Kb (gastrin receptor): 263 nM
Ki (CCKB receptor): 200 nM

CC12CC3CC(C)(C1)CC(CCc1[nH]c(C4CCCCC4)nc1C(=O)Nc1cccc(C(=O)O)c1)(C3)C2 [Example 174, 3-({2-Cyclohexyl-5-[2-(3,5-dimethyl-adamantan-1-yl)-ethyl]-1H-imidazole-4-carbonyl}-amino)-benzoic Acid]
Kb (gastrin receptor): 204 nM
Ki (CCKB receptor): 251 nM

O=C(O)c1cccc(NC(=O)c2[nH]c(C3CC3)nc2CCC23CC4CC(CC(C4)C2)C3)c1 [Example 197, 3-{[5-(2-Adamantan-1-yl-ethyl)-2-cyclopropyl-1H-imidazole-4-carbonyl]-amino}-benzoic Acid]
Kb (gastrin receptor): 70.8 nM
Ki (CCKB receptor): 776 nM

Cc1ccccc1-c1nc(C(=O)Nc2ccc(Cl)c(C(=O)O)c2)c(CCC23CC4CC(CC(C4)C2)C3)[nH]1 [Example 245, 5-{[5-(2-Adamantan-1-yl-ethyl)-2-o-tolyl-1H-imidazole-4-carbonyl]-amino}-2-chloro-benzoic Acid]
Kb (gastrin receptor): 240 nM
Ki (CCKB receptor): 6.46 nM
